# Like-named read-outs stand apart in the source and are kept apart here.
# How the values were obtained:
# [1] = tested on: normal human melanocytes or fibroblast cells
# Description: (§1) Cell viability, proliferation, apoptosis and cell cycle analysis: Viability and IC50 (μmol/L) of normal human melanocytes, fibroblast and melanoma cells following treatment with inhibitors are measured using the MTS assay (Promega, Madison, Wis.) described in Sharma A, et al., Clin Cancer Res 2009; 15:1674-85; and Madhunapantula S V, et al., Mol Cancer Ther 2008; 7:1297-308. […] IC50 values for each inhibitor in μmol/L for respective cell lines are measured from three independent experiments using GraphPad Prism version 4.01 (GraphPad Software, La Jolla, Calif.).
# MiaPaca-2 (Pancreas) = experiment: IC50 for killing cancer cells; type: cell-based; settings: Homo sapiens, MIA PaCa-2
# From the text: (§2) Therapeutic universality of selenocoxib-1-GSH for killing cancer cells is examined by treating pancreatic (MiaPaca-2), breast (MDA-MB-231), prostate (PC-3) or sarcoma (HT-1080) and colon (Caco2) cell. lines with the drug and establishing the IC50 for each cell line, Table III. Selenocoxib-1-GSH kills the various cancer cell lines at 2-3-fold lower concentrations than normal fibroblast cells.
# HT-1080 (Fibro sarcoma) = experiment: IC50 for killing cancer cells; type: cell-based; settings: Homo sapiens
# From the text: as §2
# PC-3 (Prostate) = experiment: IC50 for killing cancer cells; type: cell-based; settings: Homo sapiens
# From the text: as §2
# Caco-2 (Colon) = experiment: IC50 for killing cancer cells; type: cell-based; settings: Homo sapiens
# From the text: as §2
# MDA-MB-231 (Breast) = experiment: IC50 for killing cancer cells; type: cell-based; settings: Homo sapiens
# From the text: as §2
# Human recombinant COX-2 = target: T1, Human recombinant COX-2 (Homo sapiens, UniProt P35354); type: biochemical; settings: 0.2, 2.0 and 20 nM; DMSO = 100% activity; FIG. 2C
# T1 construct: purchased Cayman Chemical, Ann Arbor, Mich
# T1 sequence (P35354 18-604): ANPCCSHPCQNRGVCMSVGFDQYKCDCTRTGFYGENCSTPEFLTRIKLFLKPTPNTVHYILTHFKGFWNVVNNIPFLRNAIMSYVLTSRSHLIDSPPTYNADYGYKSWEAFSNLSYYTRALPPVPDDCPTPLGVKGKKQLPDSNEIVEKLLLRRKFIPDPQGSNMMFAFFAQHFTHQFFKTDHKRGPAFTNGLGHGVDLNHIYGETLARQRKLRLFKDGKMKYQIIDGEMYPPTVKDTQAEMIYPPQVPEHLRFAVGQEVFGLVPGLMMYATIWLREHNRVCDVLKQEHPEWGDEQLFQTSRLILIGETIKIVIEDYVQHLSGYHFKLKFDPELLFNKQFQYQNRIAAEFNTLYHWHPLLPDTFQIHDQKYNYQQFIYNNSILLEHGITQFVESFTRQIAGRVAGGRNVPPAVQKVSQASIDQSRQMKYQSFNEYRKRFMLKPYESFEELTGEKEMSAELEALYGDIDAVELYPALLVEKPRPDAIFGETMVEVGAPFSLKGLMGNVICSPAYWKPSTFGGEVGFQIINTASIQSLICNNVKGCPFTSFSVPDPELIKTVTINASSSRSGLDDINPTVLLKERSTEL
# [2] = tested on: UACC 903 metastatic melanoma cells; experiment: cells; settings: Homo sapiens
# Description: as §1
# (§3) The number of viable cells is measured using MTS and percentage decrease in viability calculated. IC50 values for each inhibitor in μmol/L for respective cell lines are measured from three independent experiments using GraphPad Prism version 4.01 (GraphPad Software, La Jolla, Calif.).
# [3] = tested on: 1205 Lu metastatic melanoma cells; experiment: cells; settings: Homo sapiens
# Description: as §1, §3
# 1205 Lu melanoma cells = experiment: Cell cycle analysis, propidium iodide FACScan; type: cell-based, human; settings: 72 h
# Description: (§4) The effect of selenocoxib-1-GSH on cell cycle distribution is measured by analyzing propidium iodide stained 1205 Lu and UACC 903 cells using a BD FACScan. […] Total floating and adherent cells are collected following trypsinization and stained using a 1 mL propidium iodide solution containing 100 μg/mL propidium iodide; (Sigma, St Louis, Mo.), 20 μg/mL Ribonuclease A (Roche diagnostics, Indianapolis, Ind.) and 3 μg/mL Triton X-100 dissolved in 0.1% (W/V) sodium citrate for 30 m at 4° C.
# (§5) Selenocoxib-1-GSH treatment increases the sub-G0-G1 cell population, which is indicative of cellular apoptosis. […] Total floating and adherent cells are collected, and stained with propidium iodide to analyze the distribution of cells in different phases of the cell cycle stages using a FACScan analyzer. […] Data represents an average of 2 independent experiments.
# UACC 903 melanoma cells = experiment: Cell cycle analysis, propidium iodide FACScan; type: cell-based, human; settings: 72 h
# Description: as §4, §5
# [4] = From the text: Number of mice surviving and changes in body weight after 7 days of drug treatment is scored (Table I).
# [5] = tested on: WM115 vertical growth phase melanoma cells; experiment: Cell viability, MTS assay; type: cell-based; settings: Homo sapiens, WM-115
# Description: as §1, §3
# [6] = tested on: FOM103 normal human melanocytes; experiment: Cell viability, MTS assay; type: cell-based; settings: Melanocyte
# Description: as §1, §3
# [7] = tested on: FF2441 human fibroblast cells; experiment: Cell viability, MTS assay; type: cell-based
# Description: as §1, §3
# [8] = tested on: WM35 radial growth phase melanoma cells; experiment: Cell viability, MTS assay; type: cell-based; settings: Homo sapiens
# Description: as §1, §3
smiles,measurement,setting,value
"NC(CCC(=O)NC(CS[Se]Cc1cc(-c2ccccc2)n(-c2ccc(S(N)(=O)=O)cc2)n1)C(=O)NCC(=O)O)C(=O)O (stereo not shown) [Selenocoxib-1-GSH, selenocoxib-1-glutathione]",toxicity on normal cells relative to melanoma cells,[1],significantly lower toxicity on normal cells
same,IC50,MiaPaca-2 (Pancreas),13.3 ± 1.01 µM
same,IC50,HT-1080 (Fibro sarcoma),9.1 ± 1.89 µM
same,IC50,PC-3 (Prostate),16.4 ± 2.11 µM
same,IC50,Caco-2 (Colon),16.1 ± 0.87 µM
same,IC50,MDA-MB-231 (Breast),15.4 ± 2.51 µM
same,COX-2 inhibitory activity,Human recombinant COX-2,retain COX-2 inhibitory activity
same,IC50,"[2]; UACC-903, 24 h",30.9 ± 2.8 µM
same,IC50,"[2]; UACC-903, 48 h",20.6 ± 1.7 µM
same,IC50,"[2]; UACC-903, 72 h",14.2 ± 1.2 µM
same,cytotoxicity at 12.5 µM,"[2]; UACC-903, 72 h, read-out: decrease in cell viability",40 to 60%
same,IC50,[3]; 24 h,24.6 ± 2.2 µM
same,IC50,[3]; 48 h,17.2 ± 1.6 µM
same,IC50,[3]; 72 h,10.6 ± 2.6 µM
same,cytotoxicity at 12.5 µM,"[3]; 72 h, read-out: decrease in cell viability",40 to 60%
same,increase of sub-G0-G1 population cells,1205 Lu melanoma cells; 25 μmol/L,6.2 fold
same,cell cycle progression,1205 Lu melanoma cells; 12.5 and 25 μmol/L,inhibits cell cycle progression
same,increase of sub-G0-G1 population cells,"UACC 903 melanoma cells; UACC 903, 25 μmol/L",4.7 fold
same,cell cycle progression,"UACC 903 melanoma cells; UACC 903, 12.5 and 25 μmol/L",inhibits cell cycle progression
same,% of weight loss,[4]; 0.127 μmoles (10 PPM) intraperitoneally daily for seven days,No loss
same,Mortality at Day 7,"[4]; 0.127 μmoles intraperitoneally daily for seven days, 3 mice/group (Selenocoxib-1-GSH: 10 PPM)",0/3
same,% of weight loss,[4]; 0.254 μmoles (20 PPM) intraperitoneally daily for seven days,2.0%
same,Mortality at Day 7,"[4]; 0.254 μmoles (20 PPM) intraperitoneally daily for seven days, 3 mice/group",0/3
same,mortality,"[4]; 0.127 to 0.254, seven days",no mortality
same,weight loss,"[4]; 0.127 to 0.254 moles (equivalent to 5 to 10 ppm of selenium), seven days",~2%
same,IC50,"[5]; WM115, 24 h",30.1 ± 3.3 µM
same,IC50,"[5]; WM115, 48 h",5.8 ± 0.9 µM
same,IC50,"[5]; WM115, 72 h",3.1 ± 0.4 µM
same,IC50,"[6]; FOM103, 24 h",66.3 ± 3 µM
same,IC50,"[6]; FOM103, 48 h",53.4 ± 4.3 µM
same,IC50,"[6]; FOM103, 72 h",41.2 ± 3.2 µM
same,IC50,"[7]; FF2441, 24 h",> 100 µM
same,IC50,"[7]; FF2441, 48 h",75.5 ± 5.6 µM
same,IC50,"[7]; FF2441, 72 h",36.3 ± 5.6 µM
same,IC50,"[8]; WM35, 24 h",52.6 ± 3.8 µM
same,IC50,"[8]; WM35, 48 h",4.1 ± 0.8 µM
same,IC50,"[8]; WM35, 72 h",2.7 ± 0.4 µM

# From patent publication US9918966B2, “Anti-cancer compositions and methods” (The Penn State Research Foundation, priority 2013, dated 2018)
